Experimental data published in patent US9346798B2, “Dihydrobenzoxazine and tetrahydroquinoxaline sodium channel inhibitors” (AMGEN INC., priority 2012, dated 2016).

Key:
Type in all cases: cell-based
Nav 1.7 [1] = target: T1, Nav 1.7 (Homo sapiens (Human), UniProt Q15858); assay: Nav 1.7 in vitro assay, IonWorks Quattro (IWQ) population patch-clamp; conditions: HEK 293 cells stably transfected with Nav 1.7; for IC50: 26th pulse to -20 mV; for inhibition at 4.9 µM: HEK293, values marked *, read-out: Nav 1.7 IWQ percent inhibition at 4.9 μM
T1 sequence (Q15858 whole entry): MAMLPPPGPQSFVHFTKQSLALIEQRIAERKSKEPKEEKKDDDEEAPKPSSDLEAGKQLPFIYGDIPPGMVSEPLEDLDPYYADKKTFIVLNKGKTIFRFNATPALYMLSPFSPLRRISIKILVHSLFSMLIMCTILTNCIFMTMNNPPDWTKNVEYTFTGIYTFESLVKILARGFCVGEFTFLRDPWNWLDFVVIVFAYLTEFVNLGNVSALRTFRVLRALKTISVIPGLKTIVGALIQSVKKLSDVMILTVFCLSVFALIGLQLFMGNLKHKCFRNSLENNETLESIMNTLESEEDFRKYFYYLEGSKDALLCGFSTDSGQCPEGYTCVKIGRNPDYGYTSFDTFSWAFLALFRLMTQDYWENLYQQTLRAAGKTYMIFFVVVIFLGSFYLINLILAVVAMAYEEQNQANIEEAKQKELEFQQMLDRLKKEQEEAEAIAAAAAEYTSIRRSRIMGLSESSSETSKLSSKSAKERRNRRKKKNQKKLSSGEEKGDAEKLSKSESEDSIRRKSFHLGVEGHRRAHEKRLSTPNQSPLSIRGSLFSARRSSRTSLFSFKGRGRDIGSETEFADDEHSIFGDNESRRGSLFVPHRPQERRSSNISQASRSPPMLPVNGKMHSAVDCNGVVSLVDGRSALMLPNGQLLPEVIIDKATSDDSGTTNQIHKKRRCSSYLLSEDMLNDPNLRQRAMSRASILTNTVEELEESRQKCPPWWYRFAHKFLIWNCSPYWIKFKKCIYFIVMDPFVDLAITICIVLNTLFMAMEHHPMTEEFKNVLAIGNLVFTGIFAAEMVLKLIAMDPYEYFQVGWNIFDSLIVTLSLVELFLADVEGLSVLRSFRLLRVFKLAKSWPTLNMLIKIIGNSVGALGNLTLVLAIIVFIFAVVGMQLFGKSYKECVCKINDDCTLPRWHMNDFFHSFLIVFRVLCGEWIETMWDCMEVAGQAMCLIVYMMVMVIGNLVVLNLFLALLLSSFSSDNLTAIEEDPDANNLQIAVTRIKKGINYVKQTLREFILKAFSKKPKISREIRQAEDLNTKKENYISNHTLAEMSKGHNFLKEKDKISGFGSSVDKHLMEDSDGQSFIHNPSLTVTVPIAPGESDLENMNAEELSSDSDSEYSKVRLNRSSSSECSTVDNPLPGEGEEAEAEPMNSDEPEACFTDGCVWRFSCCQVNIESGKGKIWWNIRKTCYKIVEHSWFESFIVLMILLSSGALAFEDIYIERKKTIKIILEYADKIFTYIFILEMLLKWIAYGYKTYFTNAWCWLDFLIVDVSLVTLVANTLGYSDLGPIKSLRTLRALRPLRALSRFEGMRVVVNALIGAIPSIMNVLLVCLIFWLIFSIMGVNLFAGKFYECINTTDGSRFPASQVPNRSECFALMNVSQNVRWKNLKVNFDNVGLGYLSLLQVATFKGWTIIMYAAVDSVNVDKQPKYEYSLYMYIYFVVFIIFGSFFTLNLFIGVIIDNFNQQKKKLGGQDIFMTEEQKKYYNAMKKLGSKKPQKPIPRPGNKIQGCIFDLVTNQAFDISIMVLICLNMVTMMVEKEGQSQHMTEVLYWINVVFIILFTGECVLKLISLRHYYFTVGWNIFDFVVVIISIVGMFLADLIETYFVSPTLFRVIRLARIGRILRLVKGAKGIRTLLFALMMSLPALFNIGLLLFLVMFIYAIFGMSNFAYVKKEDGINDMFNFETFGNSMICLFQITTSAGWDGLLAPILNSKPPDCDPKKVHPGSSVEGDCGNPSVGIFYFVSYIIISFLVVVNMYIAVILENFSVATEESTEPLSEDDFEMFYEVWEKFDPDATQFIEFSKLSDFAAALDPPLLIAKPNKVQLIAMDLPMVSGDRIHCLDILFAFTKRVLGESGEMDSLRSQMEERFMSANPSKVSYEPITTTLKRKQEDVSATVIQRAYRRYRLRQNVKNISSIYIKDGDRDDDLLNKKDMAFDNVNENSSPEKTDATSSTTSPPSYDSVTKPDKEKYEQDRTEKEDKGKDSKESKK
Method: (§1) Nav 1.7 and Nav 1.5 In Vitro Assays
(§2) HEK 293 cells stably transfected with either Nav 1.7 or with Nav 1.5 were recorded in population patch-clamp mode with the IonWorks® Quattro automated electrophysiology system in accordance with the manufacturer's specifications (Molecular Devices, LLC, Sunnyvale, Calif.). Sodium channel currents were measured in response to a train of depolarizations that induced successively greater inactivation.
(§3) Cells were held at −110 mV for three seconds (Nav 1.7) or half a second (Nav 1.5) from a holding voltage of −15 mV, then put through a series of 26 pulses of 150 msec duration to −20 mV at a frequency of 5 Hz. Cells were then left unclamped for a period of 3 to 8 minutes while a single concentration of test compound was added. Cells were then reclamped and put through the same voltage protocol. Current at the end of the 26th pulse to −20 mV was subtracted from the peak current evoked by the 26th pulse to −20 mV to correct for leak current. Percent block was calculated for each concentration in duplicate, and IC50 curves were fitted to percent block as a function of concentration.

Nav 1.5 = Nav 1.5 (Homo sapiens (Human), UniProt Q14524); assay: Nav 1.5 in vitro assay, IonWorks Quattro (IWQ) population patch-clamp; conditions: HEK 293 cells stably transfected with Nav 1.5; 26th pulse to -20 mV
Chain of Nav 1.5 (Q14524 whole entry): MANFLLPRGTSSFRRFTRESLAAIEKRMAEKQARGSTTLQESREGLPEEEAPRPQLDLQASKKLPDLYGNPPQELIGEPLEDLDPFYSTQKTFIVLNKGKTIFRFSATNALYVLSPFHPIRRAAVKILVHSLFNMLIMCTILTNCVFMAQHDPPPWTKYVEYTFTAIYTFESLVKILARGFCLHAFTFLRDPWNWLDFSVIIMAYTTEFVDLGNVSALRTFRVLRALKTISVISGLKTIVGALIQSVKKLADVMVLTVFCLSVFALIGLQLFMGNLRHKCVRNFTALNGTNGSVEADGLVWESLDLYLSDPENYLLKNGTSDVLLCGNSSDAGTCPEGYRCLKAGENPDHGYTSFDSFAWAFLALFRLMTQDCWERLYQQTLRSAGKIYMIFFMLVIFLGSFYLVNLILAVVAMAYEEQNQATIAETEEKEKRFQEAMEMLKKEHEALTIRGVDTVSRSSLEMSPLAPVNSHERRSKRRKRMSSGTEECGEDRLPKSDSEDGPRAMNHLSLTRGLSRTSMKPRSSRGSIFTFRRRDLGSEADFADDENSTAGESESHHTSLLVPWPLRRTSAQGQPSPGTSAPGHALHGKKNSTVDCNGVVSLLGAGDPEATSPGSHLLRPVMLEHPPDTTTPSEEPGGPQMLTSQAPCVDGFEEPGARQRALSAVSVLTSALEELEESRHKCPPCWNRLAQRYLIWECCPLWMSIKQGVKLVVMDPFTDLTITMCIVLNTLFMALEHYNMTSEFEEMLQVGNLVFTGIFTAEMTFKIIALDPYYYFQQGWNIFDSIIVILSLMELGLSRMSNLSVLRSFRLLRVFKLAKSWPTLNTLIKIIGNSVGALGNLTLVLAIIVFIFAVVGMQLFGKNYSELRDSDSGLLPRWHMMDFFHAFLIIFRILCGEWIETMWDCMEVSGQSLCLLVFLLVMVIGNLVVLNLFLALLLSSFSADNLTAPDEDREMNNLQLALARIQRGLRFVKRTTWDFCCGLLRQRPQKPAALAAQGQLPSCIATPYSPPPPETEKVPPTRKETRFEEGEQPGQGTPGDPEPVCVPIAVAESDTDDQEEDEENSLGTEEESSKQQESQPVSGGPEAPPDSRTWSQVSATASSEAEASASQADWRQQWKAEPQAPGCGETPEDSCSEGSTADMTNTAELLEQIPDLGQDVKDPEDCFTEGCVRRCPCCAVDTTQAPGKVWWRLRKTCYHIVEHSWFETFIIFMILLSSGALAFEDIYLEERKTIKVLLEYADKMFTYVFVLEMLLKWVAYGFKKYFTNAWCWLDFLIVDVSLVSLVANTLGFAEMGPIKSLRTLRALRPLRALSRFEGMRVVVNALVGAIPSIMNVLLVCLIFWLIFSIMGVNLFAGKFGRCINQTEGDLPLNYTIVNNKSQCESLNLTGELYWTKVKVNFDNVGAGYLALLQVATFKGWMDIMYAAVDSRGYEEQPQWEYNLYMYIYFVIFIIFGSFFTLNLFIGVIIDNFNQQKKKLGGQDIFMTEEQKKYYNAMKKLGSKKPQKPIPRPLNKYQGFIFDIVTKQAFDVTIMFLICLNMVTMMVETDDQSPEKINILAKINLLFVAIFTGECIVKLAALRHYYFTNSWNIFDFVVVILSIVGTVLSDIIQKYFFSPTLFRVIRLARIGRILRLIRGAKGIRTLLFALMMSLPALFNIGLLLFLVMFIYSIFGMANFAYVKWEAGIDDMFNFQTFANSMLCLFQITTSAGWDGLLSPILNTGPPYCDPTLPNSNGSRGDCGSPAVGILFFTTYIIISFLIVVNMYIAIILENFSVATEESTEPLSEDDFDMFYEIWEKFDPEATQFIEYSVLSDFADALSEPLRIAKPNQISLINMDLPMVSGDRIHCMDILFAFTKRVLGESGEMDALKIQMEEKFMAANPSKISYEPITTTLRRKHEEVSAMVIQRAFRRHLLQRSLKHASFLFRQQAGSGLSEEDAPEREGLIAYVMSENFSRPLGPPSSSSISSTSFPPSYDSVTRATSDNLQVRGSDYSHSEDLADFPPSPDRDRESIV
Method: as §1, §2, §3

Nav 1.7 [2] = target: T1, Nav 1.7; assay: Nav 1.7 in vitro PX assay, PatchXpress whole cell voltage clamp; conditions: HEK 293 cells stably transfected with human Nav1.7; for inhibition at 4.9 µM: HEK293, values marked *, read-out: Nav 1.7 PX percent inhibition at 4.9 μM; for IC50: partially inactivated state (20 to 50% inactivation)
Method: Nav 1.7 In Vitro PX Assay
HEK 293 cells stably transfected with human Nav1.7 were recorded in whole cell voltage clamp mode with the PatchXpress automated electrophysiology system (Molecular Devices, LLC, Sunnyvale, Calif.). Compound effects were measured on a partially inactivated state of the sodium channel. Cells were clamped to a holding potential yielding 20 to 50% inactivation. To elicit sodium current, channels were activated by pulsing to −10 mV for 20 msec. This voltage protocol was repeated at a rate of 0.1 Hz throughout the experiment. A single concentration of test compound was applied to cells for a duration of 3 minutes. Peak sodium current was measured at the end of the compound addition period to determine percent inhibition. Three to five cells were tested per concentration, and IC50 curves were fitted to percent inhibition as a function of concentration.

Structure (SMILES): O=C(Oc1ccc([N+](=O)[O-])cc1)N1CCOc2cc(S(=O)(=O)Nc3nccs3)ccc21 [Example 197, 4-nitrophenyl 7-(N-(thiazol-2-yl)sulfamoyl)-2H-benzo[b][1,4]oxazine-4(3 H)-carboxylate]
- IC50 (Nav 1.7 [1]): 2530 nM
- IC50 (Nav 1.5): > 10000 nM
- inhibition at 4.9 µM (Nav 1.7 [2]): 27.8%

Structure (SMILES): N#Cc1cc(C(F)(F)F)ccc1N1CCOc2cc(S(=O)(=O)Nc3ncns3)ccc21 [Example 31, 4-(2-Cyano-4-(Trifluoromethyl)Phenyl)-N-(1,2,4-Thiadiazol-5-Yl)-3,4-Dihydro-2H-Benzo[B][1,4]Oxazine-7-Sulfonamide]
- IC50 (Nav 1.7 [1]): 16 nM
- IC50 (Nav 1.5): 1460 nM
- IC50 (Nav 1.7 [2]): 91.4 nM

Structure (SMILES): CN1CC=C(c2cc(C(F)(F)F)ccc2N2CCOc3cc(S(=O)(=O)Nc4ncns4)ccc32)CC1 [Example 22, 4-(2-(1-Methyl-1,2,3,6-Tetrahydropyridin-4-Yl)-4-(Trifluoromethyl)Phenyl)-N-(1,2,4-Thiadiazol-5-Yl)-3,4-Dihydro-2H-Benzo[B][1,4]Oxazine-7-Sulfonamide 2,2,2-Trifluoroacetate]
- IC50 (Nav 1.7 [1]): 10.5 nM
- IC50 (Nav 1.5): > 10000 nM
- IC50 (Nav 1.7 [2]): 134 nM

Structure (SMILES): [N-]=[N+]=Nc1ccc(N2CCOc3cc(S(=O)(=O)Nc4nccs4)ccc32)c(C2=CCNCC2)c1 [Example 65, 4-(4-Azido-2-(1,2,3,6-Tetrahydropyridin-4-Yl)Phenyl)-N-(Thiazol-2-Yl)-3,4-Dihydro-2H-Benzo[B][1,4]Oxazine-7-Sulfonamide Bis(2,2,2-Trifluoroacetate)]
- IC50 (Nav 1.7 [1]): 24 nM
- IC50 (Nav 1.5): 5280 nM
- IC50 (Nav 1.7 [2]): 24.4 nM

Structure (SMILES): O=S(=O)(Nc1nccs1)c1ccc2c(c1)OCCN2c1ccc(C(F)(F)F)nc1 [Example 122, N-(thiazol-2-yl)-4-(6-(trifluoromethyl)pyridin-3-yl)-3,4-dihydro-2H-benzo[b][1,4]oxazine-7-sulfonamide]
- IC50 (Nav 1.7 [1]): 615 nM
- IC50 (Nav 1.5): 7030 nM
- IC50 (Nav 1.7 [2]): 2900 nM

Structure (SMILES): CCC1CN(c2ccc(C(F)(F)F)cc2C#N)c2ccc(S(=O)(=O)Nc3nccs3)cc2O1 (single isomer, unassigned) [Example 102]
- IC50 (Nav 1.7 [1]): 1390 nM
- IC50 (Nav 1.5): > 10000 nM
- IC50 (Nav 1.7 [2]): 8890 nM

Structure (SMILES): N#Cc1ccc(C(F)(F)F)cc1N1CCOc2cc(S(=O)(=O)Nc3nccs3)ccc21 [Example 184, 4-(2-Cyano-5-(Trifluoromethyl)Phenyl)-N-(Thiazol-2-Yl)-3,4-Dihydro-2H-Benzo[B][1,4]Oxazine-7-Sulfonamide]
- IC50 (Nav 1.7 [1]): 186 nM
- IC50 (Nav 1.5): 3170 nM
- IC50 (Nav 1.7 [2]): 392 nM

Structure (SMILES): O=S(=O)(Nc1cc(Cl)ncn1)c1ccc2c(c1)OCCN2c1ccc(C(F)(F)F)cc1Cl [Example 9, 4-(2-Chloro-4-(Trifluoromethyl)Phenyl)-N-(6-Chloropyrimidin-4-Yl)-3,4-Dihydro-2H-Benzo[B][1,4]Oxazine-7-Sulfonamide]
- IC50 (Nav 1.7 [1]): 876 nM
- IC50 (Nav 1.5): > 10000 nM
- IC50 (Nav 1.7 [2]): 6320 nM

Structure (SMILES): N#CCc1cccc(N2CCOc3cc(S(=O)(=O)Nc4nccs4)ccc32)c1 [Example 174, 4-(3-(Cyanomethyl)Phenyl)-N-(Thiazol-2-Yl)-3,4-Dihydro-2H-Benzo[B][1,4]Oxazine-7-Sulfonamide 2,2,2-Trifluoroacetate]
- IC50 (Nav 1.7 [1]): 211 nM
- IC50 (Nav 1.5): 2010 nM
- IC50 (Nav 1.7 [2]): 822 nM

Structure (SMILES): O=S(=O)(Nc1nccs1)c1ccc2c(c1)OCCN2c1ccccc1C1=CCNCC1 [Example 59, 4-(2-(1,2,3,6-Tetrahydropyridin-4-Yl)Phenyl)-N-(Thiazol-2-Yl)-3,4-Dihydro-2H-Benzo[B][1,4]Oxazine-7-Sulfonamide 2,2,2-Trifluoroacetate]
- IC50 (Nav 1.7 [1]): 15 nM
- IC50 (Nav 1.5): 5570 nM
- IC50 (Nav 1.7 [2]): 252 nM

Structure (SMILES): O=S(=O)(Nc1nccs1)c1ccc2c(c1)OCCN2c1ccc(Cl)c(C(F)(F)F)c1 [Example 125, 4-(4-Chloro-3-(trifluoromethyl)phenyl)-N-(thiazol-2-yl)-3,4-dihydro-2H-benzo[b][1,4]oxazine-7-sulfonamide]
- IC50 (Nav 1.7 [1]): 571 nM
- IC50 (Nav 1.5): 6550 nM
- IC50 (Nav 1.7 [2]): 4040 nM

Structure (SMILES): N#Cc1ccc(N2CCOc3cc(S(=O)(=O)Nc4nccs4)ccc32)c(Cl)c1 [Example 191, 4-(2-Chloro-4-Cyanophenyl)-N-(Thiazol-2-Yl)-3,4-Dihydro-2H-Benzo[B][1,4]Oxazine-7-Sulfonamide]
- IC50 (Nav 1.7 [1]): 140 nM
- IC50 (Nav 1.5): > 10000 nM
- IC50 (Nav 1.7 [2]): 976 nM

Structure (SMILES): N#Cc1cccc(Cl)c1N1CCOc2cc(S(=O)(=O)Nc3nccs3)ccc21 [Example 142, 4-(2-Chloro-6-cyanophenyl)-N-(thiazol-2-yl)-3,4-dihydro-2H-benzo[b][1,4]oxazine-7-sulfonamide]
- IC50 (Nav 1.7 [1]): 2210 nM
- IC50 (Nav 1.5): > 10000 nM
- inhibition at 4.9 µM (Nav 1.7 [2]): 33.9%

Structure (SMILES): Cc1cccc(N2CCOc3cc(S(=O)(=O)Nc4nccs4)ccc32)c1 [Example 75, N-(Thiazol-2-Yl)-4-(M-Tolyl)-3,4-Dihydro-2H-Benzo[B][1,4]Oxazine-7-Sulfonamide 2,2,2-Trifluoroacetate]
- IC50 (Nav 1.7 [1]): 182 nM
- IC50 (Nav 1.5): 7370 nM
- IC50 (Nav 1.7 [2]): 706 nM

Structure (SMILES): O=S(=O)(Nc1nccs1)c1ccc2c(c1)OCCN2c1ccc(C(F)(F)F)cc1CC(O)CO (racemic) [Example 207, 4-(2-(2,3-Dihydroxypropyl)-4-(Trifluoromethyl)Phenyl)-N-(Thiazol-2-Yl)-3,4-Dihydro-2H-Benzo[B][1,4]Oxazine-7-Sulfonamide]
- IC50 (Nav 1.7 [1]): 25 nM
- IC50 (Nav 1.5): 3110 nM
- IC50 (Nav 1.7 [2]): 86.7 nM

Structure (SMILES): COc1cnc(N2CCOc3cc(S(=O)(=O)Nc4nccs4)ccc32)c(OC)c1 [Example 144, 4-(3,5-Dimethoxypyridin-2-yl)-N-(thiazol-2-yl)-3,4-dihydro-2H-benzo[b][1,4]oxazine-7-sulfonamide]
- IC50 (Nav 1.7 [1]): 894 nM
- IC50 (Nav 1.5): > 10000 nM
- IC50 (Nav 1.7 [2]): 7670 nM

Structure (SMILES): O=S(=O)(Nc1nccs1)c1ccc2c(c1)OCCN2c1ccc(C(F)(F)F)cc1C[C@H](O)CO (single isomer, unassigned) [Example 208]
- IC50 (Nav 1.7 [1]): 18.5 nM
- IC50 (Nav 1.5): 896 nM
- IC50 (Nav 1.7 [2]): 258 nM

Structure (SMILES): O=C1COc2cc(S(=O)(=O)Nc3nncs3)ccc2N1c1cccc(Cl)c1 [Example 92, 4-(3-Chlorophenyl)-3-Oxo-N-(1,3,4-Thiadiazol-2-Yl)-3,4-Dihydro-2H-Benzo[B][1,4]Oxazine-7-Sulfonamide]
- inhibition at 4.9 µM (Nav 1.7 [1]): 26.4%
- IC50 (Nav 1.5): > 10000 nM

Structure (SMILES): Cc1cnc(NS(=O)(=O)c2ccc3c(c2)OCCN3c2ccc(C(F)(F)F)cc2Cl)s1 [Example 12, 4-(2-Chloro-4-(Trifluoromethyl)Phenyl)-N-(5-Methylthiazol-2-Yl)-3,4-Dihydro-2H-Benzo[B][1,4]Oxazine-7-Sulfonamide]
- inhibition at 4.9 µM (Nav 1.7 [1]): 24.5%
- IC50 (Nav 1.5): > 10000 nM

Structure (SMILES): N#Cc1cncc(N2CCOc3cc(S(=O)(=O)Nc4nccs4)ccc32)c1 [Example 117, 4-(5-Cyanopyridin-3-yl)-N-(thiazol-2-yl)-3,4-dihydro-2H-benzo[b][1,4]oxazine-7-sulfonamide]
- IC50 (Nav 1.7 [1]): 2140 nM
- IC50 (Nav 1.5): > 10000 nM

Structure (SMILES): O=S(=O)(Nc1cncs1)c1ccc2c(c1)OCCN2c1ccc(C(F)(F)F)cc1C1=CCNCC1 [Example 85, 4-(2-(1,2,3,6-Tetrahydropyridin-4-Yl)-4-(Trifluoromethyl)Phenyl)-N-(Thiazol-5-Yl)-3,4-Dihydro-2H-Benzo[B][1,4]Oxazine-7-Sulfonamide 2,2,2-Trifluoroacetate]
- inhibition at 4.9 µM (Nav 1.7 [1]): 41.1%
- IC50 (Nav 1.5): > 10000 nM

Structure (SMILES): Cc1ccc2cnccc2c1N1CCOc2cc(S(=O)(=O)Nc3nccs3)ccc21 [Example 73, 4-(6-Methylisoquinolin-5-Yl)-N-(Thiazol-2-Yl)-3,4-Dihydro-2H-Benzo[B][1,4]Oxazine-7-Sulfonamide 2,2,2-Trifluoroacetate]
- IC50 (Nav 1.7 [1]): 7580 nM
- IC50 (Nav 1.5): > 10000 nM

Structure (SMILES): CN(C)CCn1ccc(NS(=O)(=O)c2ccc3c(c2)OCCN3c2ccc(C(F)(F)F)cc2Cl)n1 [Example 14, 4-(2-Chloro-4-(Trifluoromethyl)Phenyl)-N-(1-(2-(Dimethylamino)Ethyl)-1H-Pyrazol-3-Yl)-3,4-Dihydro-2H-Benzo[B][1,4]Oxazine-7-Sulfonamide 2,2,2-Trifluoroacetate]
- IC50 (Nav 1.7 [1]): 9310 nM
- IC50 (Nav 1.5): 8250 nM

Structure (SMILES): CCN(CC)C(=O)CN1CCOc2cc(S(=O)(=O)Nc3nccs3)ccc21 [Example 228, N,N-Diethyl-2-(7-(N-(Thiazol-2-Yl)Sulfamoyl)-2H-Benzo[B][1,4]Oxazin-4(3 H)-Yl)Acetamide]
- inhibition at 4.9 µM (Nav 1.7 [1]): 20%
- IC50 (Nav 1.5): > 10000 nM

Structure (SMILES): Cn1ccc(NS(=O)(=O)c2ccc3c(c2)OCCN3c2ccc(C(F)(F)F)cc2Cl)n1 [Example 15, 4-(2-Chloro-4-(Trifluoromethyl)Phenyl)-N-(1-Methyl-1H-Pyrazol-3-Yl)-3,4-Dihydro-2H-Benzo[B][1,4]Oxazine-7-Sulfonamide]
- IC50 (Nav 1.7 [1]): 6110 nM
- IC50 (Nav 1.5): > 10000 nM
